Measured values: PubChem BioAssay (NCI)
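Each compound was tested at five concentrations against cells in 96-well plates for 48 hours. GI50: concentration for 50% inhibition of growth. TGI denotes the concentration required for complete inhibition of growth.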

How the values were obtained:
Test in all cases: inhibition of tumour cell growth, NCI panel, 48 h
M14 melanoma = system: M14 melanoma
UO-31 renal = system: UO-31 renal
SR leukemia = system: SR leukemia
CCRF-CEM leukemia = system: CCRF-CEM leukemia
SNB-75 CNS = system: SNB-75 CNS
DU-145 prostate = system: DU-145 prostate
PC-3 prostate = system: PC-3 prostate
COLO 205 colon = system: COLO 205 colon
SF-268 CNS = system: SF-268 CNS
OVCAR-8 ovarian = system: OVCAR-8 ovarian
A498 renal = system: A498 renal
HS 578T breast = system: HS 578T breast
NCI/ADR-RES ovarian = system: NCI/ADR-RES ovarian
KM12 colon = system: KM12 colon
MDA-MB-435 = system: MDA-MB-435
IGROV1 ovarian = system: IGROV1 ovarian
786-0 renal = system: 786-0 renal
HCC-2998 colon = system: HCC-2998 colon
SK-MEL-28 melanoma = system: SK-MEL-28 melanoma
K-562 leukemia = system: K-562 leukemia
A549 NSCLC = system: A549 NSCLC
RPMI-8226 leukemia = system: RPMI-8226 leukemia
LOX IMVI melanoma = system: LOX IMVI melanoma
SN12C renal = system: SN12C renal
OVCAR-4 ovarian = system: OVCAR-4 ovarian
SF-295 CNS = system: SF-295 CNS
SK-OV-3 ovarian = system: SK-OV-3 ovarian
NCI-H522 lung = system: NCI-H522 lung
NCI-H23 lung = system: NCI-H23 lung
NCI-H460 lung = system: NCI-H460 lung
MCF7 breast = system: MCF7 breast
OVCAR-5 ovarian = system: OVCAR-5 ovarian
MALME-3M melanoma = system: MALME-3M melanoma
MDA-MB-231 breast = system: MDA-MB-231 breast
BT-549 breast = system: BT-549 breast
U251 CNS = system: U251 CNS
EKVX NSCLC = system: EKVX NSCLC
SW-620 colon = system: SW-620 colon
SF-539 CNS = system: SF-539 CNS
HL-60(TB) leukemia = system: HL-60(TB) leukemia
SK-MEL-2 melanoma = system: SK-MEL-2 melanoma
ACHN renal = system: ACHN renal
SK-MEL-5 melanoma = system: SK-MEL-5 melanoma
HCT-15 colon = system: HCT-15 colon
UACC-62 melanoma = system: UACC-62 melanoma
SNB-19 CNS = system: SNB-19 CNS
RXF 393 renal = system: RXF 393 renal
HCT-116 colon = system: HCT-116 colon
CAKI-1 renal = system: CAKI-1 renal
UACC-257 melanoma = system: UACC-257 melanoma
T-47D breast = system: T-47D breast
HT29 colon = system: HT29 colon
HOP-92 NSCLC = system: HOP-92 NSCLC
MOLT-4 leukemia = system: MOLT-4 leukemia
TK-10 renal = system: TK-10 renal
HOP-62 NSCLC = system: HOP-62 NSCLC
OVCAR-3 ovarian = system: OVCAR-3 ovarian

SMILES: CCCCC/C=C/C(=O)CCc1ccc(O)c(OC)c1
- GI50 (M14 melanoma): 5.5 µM
- TGI (M14 melanoma): 19.4 µM
- GI50 (UO-31 renal): 1.28 µM
- TGI (UO-31 renal): 13.6 µM
- GI50 (SR leukemia): 2.89 µM
- TGI (SR leukemia): > 100 µM
- GI50 (CCRF-CEM leukemia): 0.198 µM
- TGI (CCRF-CEM leukemia): 3.01 µM
- GI50 (SNB-75 CNS): 5.63 µM
- TGI (SNB-75 CNS): 20.5 µM
- GI50 (DU-145 prostate): 4.03 µM
- TGI (DU-145 prostate): 15.4 µM
- GI50 (PC-3 prostate): 3.75 µM
- TGI (PC-3 prostate): 18 µM
- GI50 (COLO 205 colon): 11.2 µM
- TGI (COLO 205 colon): 24.1 µM
- GI50 (SF-268 CNS): 10.9 µM
- TGI (SF-268 CNS): 25.5 µM
- GI50 (OVCAR-8 ovarian): 4.03 µM
- TGI (OVCAR-8 ovarian): 16.7 µM
- GI50 (A498 renal): 13.1 µM
- TGI (A498 renal): 26.8 µM
- GI50 (HS 578T breast): 3.49 µM
- TGI (HS 578T breast): 32.8 µM
- GI50 (NCI/ADR-RES ovarian): 7.49 µM
- TGI (NCI/ADR-RES ovarian): 37 µM
- GI50 (KM12 colon): 3.09 µM
- TGI (KM12 colon): 11.7 µM
- GI50 (MDA-MB-435): 4.04 µM
- TGI (MDA-MB-435): 19 µM
- GI50 (IGROV1 ovarian): 1.74 µM
- TGI (IGROV1 ovarian): 6.91 µM
- GI50 (786-0 renal): 10.6 µM
- TGI (786-0 renal): 23.6 µM
- GI50 (HCC-2998 colon): 16.7 µM
- TGI (HCC-2998 colon): 30.7 µM
- GI50 (SK-MEL-28 melanoma): 15 µM
- TGI (SK-MEL-28 melanoma): 28.7 µM
- GI50 (K-562 leukemia): 3.77 µM
- TGI (K-562 leukemia): > 100 µM
- GI50 (A549 NSCLC): 6.25 µM
- TGI (A549 NSCLC): 20.8 µM
- GI50 (RPMI-8226 leukemia): 1.69 µM
- TGI (RPMI-8226 leukemia): 4.34 µM
- GI50 (LOX IMVI melanoma): 1.6 µM
- TGI (LOX IMVI melanoma): 3.29 µM
- GI50 (SN12C renal): 7.99 µM
- TGI (SN12C renal): 21.4 µM
- GI50 (OVCAR-4 ovarian): 11 µM
- TGI (OVCAR-4 ovarian): 23.1 µM
- GI50 (SF-295 CNS): 10.4 µM
- TGI (SF-295 CNS): 31 µM
- GI50 (SK-OV-3 ovarian): 13.8 µM
- TGI (SK-OV-3 ovarian): 27.4 µM
- GI50 (NCI-H522 lung): 2 µM
- TGI (NCI-H522 lung): 13.6 µM
- GI50 (NCI-H23 lung): 4.62 µM
- TGI (NCI-H23 lung): 17.9 µM
- GI50 (NCI-H460 lung): 15.2 µM
- TGI (NCI-H460 lung): 33.6 µM
- GI50 (MCF7 breast): 3.11 µM
- TGI (MCF7 breast): 15.8 µM
- GI50 (OVCAR-5 ovarian): 16.2 µM
- TGI (OVCAR-5 ovarian): 32.1 µM
- GI50 (MALME-3M melanoma): 16.6 µM
- TGI (MALME-3M melanoma): 35.3 µM
- GI50 (MDA-MB-231 breast): 12.6 µM
- TGI (MDA-MB-231 breast): 32.8 µM
- GI50 (BT-549 breast): 13.2 µM
- TGI (BT-549 breast): 26.7 µM
- GI50 (U251 CNS): 4.65 µM
- TGI (U251 CNS): 17.1 µM
- GI50 (EKVX NSCLC): 15.1 µM
- TGI (EKVX NSCLC): 31.9 µM
- GI50 (SW-620 colon): 2.86 µM
- TGI (SW-620 colon): 10.3 µM
- GI50 (SF-539 CNS): 5.4 µM
- TGI (SF-539 CNS): 20.6 µM
- GI50 (HL-60(TB) leukemia): 0.784 µM
- TGI (HL-60(TB) leukemia): 43.9 µM
- GI50 (SK-MEL-2 melanoma): 14.8 µM
- TGI (SK-MEL-2 melanoma): 28.8 µM
- GI50 (ACHN renal): 11.8 µM
- TGI (ACHN renal): 24.1 µM
- GI50 (SK-MEL-5 melanoma): 12.4 µM
- TGI (SK-MEL-5 melanoma): 25.1 µM
- GI50 (HCT-15 colon): 10.8 µM
- TGI (HCT-15 colon): 27.2 µM
- GI50 (UACC-62 melanoma): 13.9 µM
- TGI (UACC-62 melanoma): 27.7 µM
- GI50 (SNB-19 CNS): 14 µM
- TGI (SNB-19 CNS): 27.1 µM
- GI50 (RXF 393 renal): 5.4 µM
- TGI (RXF 393 renal): 18.6 µM
- GI50 (HCT-116 colon): 1.71 µM
- TGI (HCT-116 colon): 3.26 µM
- GI50 (CAKI-1 renal): 9.38 µM
- TGI (CAKI-1 renal): 27.5 µM
- GI50 (UACC-257 melanoma): 9.67 µM
- TGI (UACC-257 melanoma): 22.3 µM
- GI50 (T-47D breast): 4.78 µM
- TGI (T-47D breast): 18.9 µM
- GI50 (HT29 colon): 2.13 µM
- TGI (HT29 colon): 4.94 µM
- GI50 (HOP-92 NSCLC): 3.42 µM
- TGI (HOP-92 NSCLC): 18.5 µM
- GI50 (MOLT-4 leukemia): 10.1 µM
- TGI (MOLT-4 leukemia): > 100 µM
- GI50 (TK-10 renal): 11.6 µM
- TGI (TK-10 renal): 24.7 µM
- GI50 (HOP-62 NSCLC): 9.77 µM
- TGI (HOP-62 NSCLC): 22.1 µM
- GI50 (OVCAR-3 ovarian): 3.23 µM
- TGI (OVCAR-3 ovarian): 12.9 µM
